Data: US20250281462A1, “THERAPEUTICALLY EFFECTIVE ORAL ADMINISTRATION OF A 2 ARYLBENZIMIDAZOLE” (Tranquis Therapeutics, Inc., priority 2021, published 2025)
Entries after “also recorded” stand apart in the source; their conditions may differ.

What was measured:
IL-6 = assay: LPS-stimulated IL-6 secretion from human PBMCs (ELISA); assay type: cell-based; conditions: LPS 1 ng/mL, 24 h
Method: The principal metabolites from liver metabolism of TQS-168 following oral administration have been described. See Sun et al., Rapid Commun. Mass Spectrom. 32:480-488 (2018), incorporated herein by reference. We synthesized the phase 1 metabolites from liver metabolism of TQS-168 illustrated in FIG. 20 and tested them for the ability to inhibit LPS-stimulated secretion of pro-inflammatory cytokines in vitro.
Briefly, 20,000 human PBMC were aliquoted into each well. LPS was added at 1 ng/mL and the cells incubated for 24 h in the presence of LPS and TQS-168 or one of its metabolites. Readouts were human IL-6 ELISA and human TNFα ELISA. For assay, supernatants were diluted in culture medium. The supernatant dilution for the IL-6 ELISA was 1:8, and the 1:2 for the human TNFα ELISA.

[1] = system: murine models of neurodegenerative diseases; conditions: mice, oral 25-50 mg/kg; Parkinson's disease, Alzheimer's disease, ALS models; cited from earlier work
[2] = Phase 1 multiple dose trial, plasma pharmacokinetics (Part 2); conditions: for Tmax: median
TNFα = TNFα release by LPS-stimulated BV2 cells (ELISA); assay type: cell-based, murine
Method: First, 100 μL of supernatant was removed from Cell Plate and transferred to a Dilution Plate, which was then centrifuged at 216×g for 10 minutes to remove particulates. The dilution plate was either assayed immediately or aliquots were taken and stored at ≤−20° C.; repeated freeze-thaw cycles were avoided.
Next, a standard curve was prepared by first pipetting 900 ul of Calibrator Diluent RD5K into the […] tube, followed by 200 μl of the appropriate calibrator diluent in the remaining tubes. The stock solution was used to produce a dilution. The resulting tubes were then thoroughly mixed. The Mouse TNFα Standard ([…]) served as the high standard, and the Calibrator Diluent RD5T served as the zero standard at 0 pg/ml.
Assay Diluent RD1-63 (50 uL) was then added to the center of each well and mixed before and during its use. Then, 50 ul of either standard, control, or sample was added to the center of each well, and covered with adhesive strip. […]
Substrate solution (100 uL) was then added to each well, incubated in the dark for 30 minutes at room temperature, followed by addition of 100 μl of Stop Solution and mixed. The optical density of each well was determined within 30 minutes by using a microplate reader set to 450 nm.
Plates were read on a Spectrostar Nano machine with built-in MARS data analysis at […] and 570 nM. […]

[3] = human plasma, Regimen I: 120 mg TQS-168 SDD QD 7 days, fasted, geometric mean
[4] = human plasma, Regimen J 90 mg SDD fed, Day 1
[5] = human plasma, Regimen J 90 mg SDD fed, Day 7
[6] = human plasma, Regimen J: 90 mg TQS-168 SDD QD 7 days, fed, geometric mean
[7] = human plasma, Regimen K: 300 mg TQS-168 SDD QD 7 days, fed, geometric mean

CC(C)(C)c1ccc(-c2nc3cc(O)ccc3[nH]2)cc1 [TQS-621]
inhibition of LPS-stimulated IL-6 secretion (IL-6): potently inhibits; also recorded: potent inhibitor

CC(C)(C)c1ccc(-c2nc3ccccc3[nH]2)cc1 [TQS-168, 2-(4-tert-butylphenyl)-1H-benzimidazole]
myeloid-mediated inflammation and disease severity [1]: suppress myeloid-mediated inflammation and reduce disease severity
T1/2 ([2]; Regimen J, 90 mg TQS-168 SDD QD, fed, Day 7, geometric mean): 4.46 h
T1/2 ([2]; Regimen K, 300 mg TQS-168 SDD QD, fed, Day 7, geometric mean): 5.67 h
AUC(0-tau) ([2]; human plasma, Regimen I: 120 mg TQS-168 SDD QD 7 days, fasted, Day 1, geometric mean): 0.438 µg·h/mL
AUC(0-tau) ([2]; human plasma, Regimen I: 120 mg TQS-168 SDD QD 7 days, fasted, Day 7, geometric mean): 0.692 µg·h/mL
accumulation ratio based on AUC(0-tau) [2, 3]: 1.58
accumulation ratio based on Cmax [2, 3]: 1.59
maximum individual AUC(0-tau) as share of the AUC(0-24) exposure limit [2, 4]: 10.9%
maximum individual Cmax as share of the Cmax exposure limit [2, 4]: 21.6%
maximum individual AUC(0-tau) as share of the AUC(0-24) exposure limit [2, 5]: 19.5%
maximum individual Cmax as share of the Cmax exposure limit [2, 5]: 30.9%
AUC(0-tau) ([2]; human plasma, Regimen J: 90 mg TQS-168 SDD QD 7 days, fed, Day 1, geometric mean): 0.223 µg·h/mL
AUC(0-tau) ([2]; human plasma, Regimen J: 90 mg TQS-168 SDD QD 7 days, fed, Day 7, geometric mean): 0.227 µg·h/mL
accumulation ratio based on AUC(0-tau) [2, 6]: 1.24
accumulation ratio based on Cmax [2, 6]: 1.03
AUC(0-tau) ([2]; human plasma, Regimen K: 300 mg TQS-168 SDD QD 7 days, fed, Day 1, geometric mean): 1.21 µg·h/mL
AUC(0-tau) ([2]; human plasma, Regimen K: 300 mg TQS-168 SDD QD 7 days, fed, Day 7, geometric mean): 2.01 µg·h/mL
accumulation ratio based on AUC(0-tau) [2, 7]: 1.66
accumulation ratio based on Cmax [2, 7]: 1.74
AUC ([2]; male, human, in vivo, 90 mg, AUC(0-tau), Regimen J, 90 mg TQS-168 SDD QD, fed, Day 1, tau = 24 h, geometric mean): 0.223 µg·h/mL
AUC ([2]; male, human, in vivo, 90 mg, AUC(0-tau), Regimen J, 90 mg TQS-168 SDD QD, fed, Day 7, tau = 24 h, geometric mean): 0.227 µg·h/mL
AUC ([2]; male, human, in vivo, 90 mg, AUC(0-tau), human plasma, Regimen J: 90 mg TQS-168 SDD QD 7 days, fed, Day 1, geometric mean): 0.223 µg·h/mL
AUC ([2]; male, human, in vivo, 90 mg, AUC(0-tau), human plasma, Regimen J: 90 mg TQS-168 SDD QD 7 days, fed, Day 7, geometric mean): 0.227 µg·h/mL
Cmax ([2]; male, human, in vivo, 90 mg, Cmax, Regimen J, 90 mg TQS-168 SDD QD, fed, Day 1, plasma, geometric mean): 0.0474 µg/mL
Cmax ([2]; male, human, in vivo, 90 mg, Cmax, Regimen J, 90 mg TQS-168 SDD QD, fed, Day 7, plasma, geometric mean): 0.0488 µg/mL
Cmax ([2]; male, human, in vivo, 90 mg, Cmax, human plasma, Regimen J: 90 mg TQS-168 SDD QD 7 days, fed, Day 1): 0.19 µM
Cmax ([2]; male, human, in vivo, 90 mg, Cmax, human plasma, Regimen J: 90 mg TQS-168 SDD QD 7 days, fed, Day 1, geometric mean): 0.0474 µg/mL
Cmax ([2]; male, human, in vivo, 90 mg, Cmax, human plasma, Regimen J: 90 mg TQS-168 SDD QD 7 days, fed, Day 7): 0.19 µM
Cmax ([2]; male, human, in vivo, 90 mg, Cmax, human plasma, Regimen J: 90 mg TQS-168 SDD QD 7 days, fed, Day 7, geometric mean): 0.0488 µg/mL
Tmax ([2]; male, human, in vivo, 90 mg, Tmax (median), Regimen J, 90 mg TQS-168 SDD QD, fed, Day 7, plasma): 3 h
Tmax ([2]; male, human, in vivo, 90 mg, Tmax, human plasma, Regimen J: 90 mg TQS-168 SDD QD 7 days, fed, Day 1): 3 h
Tmax ([2]; male, human, in vivo, 90 mg, Tmax, human plasma, Regimen J: 90 mg TQS-168 SDD QD 7 days, fed, Day 7): 3 h
AUC ([2]; male, human, in vivo, 90 mg, maximum individual AUC(0-tau), human plasma, Regimen J 90 mg SDD fed, Day 1): 0.299 µg·h/mL
AUC ([2]; male, human, in vivo, 90 mg, maximum individual AUC(0-tau), human plasma, Regimen J 90 mg SDD fed, Day 7): 0.535 µg·h/mL
Cmax ([2]; male, human, in vivo, 90 mg, maximum individual Cmax, human plasma, Regimen J 90 mg SDD fed, Day 1): 0.0658 µg/mL
Cmax ([2]; male, human, in vivo, 90 mg, maximum individual Cmax, human plasma, Regimen J 90 mg SDD fed, Day 7): 0.0941 µg/mL
half-life ([2]; male, human, in vivo, 120 mg): 7.7 h
AUC ([2]; male, human, in vivo, 120 mg, AUC(0-tau), human plasma, Regimen I: 120 mg TQS-168 SDD QD 7 days, fasted, Day 1, geometric mean): 0.438 µg·h/mL
AUC ([2]; male, human, in vivo, 120 mg, AUC(0-tau), human plasma, Regimen I: 120 mg TQS-168 SDD QD 7 days, fasted, Day 7, geometric mean): 0.692 µg·h/mL
Cmax ([2]; male, human, in vivo, 120 mg, Cmax, human plasma, Regimen I: 120 mg TQS-168 SDD QD 7 days, fasted, Day 1): 0.69 µM
Cmax ([2]; male, human, in vivo, 120 mg, Cmax, human plasma, Regimen I: 120 mg TQS-168 SDD QD 7 days, fasted, Day 1, geometric mean): 0.172 µg/mL
Cmax ([2]; male, human, in vivo, 120 mg, Cmax, human plasma, Regimen I: 120 mg TQS-168 SDD QD 7 days, fasted, Day 7): 1.09 µM
Cmax ([2]; male, human, in vivo, 120 mg, Cmax, human plasma, Regimen I: 120 mg TQS-168 SDD QD 7 days, fasted, Day 7, geometric mean): 0.273 µg/mL
Tmax ([2]; male, human, in vivo, 120 mg, Tmax, human plasma, Regimen I: 120 mg TQS-168 SDD QD 7 days, fasted, Day 1): 1 h
Tmax ([2]; male, human, in vivo, 120 mg, Tmax, human plasma, Regimen I: 120 mg TQS-168 SDD QD 7 days, fasted, Day 7): 0.75 h
AUC ([2]; male, human, in vivo, 300 mg, AUC(0-tau), Regimen K, 300 mg TQS-168 SDD QD, fed, Day 1, tau = 24 h, geometric mean): 1.21 µg·h/mL
AUC ([2]; male, human, in vivo, 300 mg, AUC(0-tau), Regimen K, 300 mg TQS-168 SDD QD, fed, Day 7, tau = 24 h, geometric mean): 2.01 µg·h/mL
AUC ([2]; male, human, in vivo, 300 mg, AUC(0-tau), human plasma, Regimen K: 300 mg TQS-168 SDD QD 7 days, fed, Day 1, geometric mean): 1.21 µg·h/mL
AUC ([2]; male, human, in vivo, 300 mg, AUC(0-tau), human plasma, Regimen K: 300 mg TQS-168 SDD QD 7 days, fed, Day 7, geometric mean): 2.01 µg·h/mL
Cmax ([2]; male, human, in vivo, 300 mg, Cmax, Regimen K, 300 mg TQS-168 SDD QD, fed, Day 1, plasma, geometric mean): 0.229 µg/mL
Cmax ([2]; male, human, in vivo, 300 mg, Cmax, Regimen K, 300 mg TQS-168 SDD QD, fed, Day 7, plasma, geometric mean): 0.4 µg/mL
Cmax ([2]; male, human, in vivo, 300 mg, Cmax, human plasma, Regimen K: 300 mg TQS-168 SDD QD 7 days, fed, Day 1): 0.91 µM
Cmax ([2]; male, human, in vivo, 300 mg, Cmax, human plasma, Regimen K: 300 mg TQS-168 SDD QD 7 days, fed, Day 1, geometric mean): 0.229 µg/mL
Cmax ([2]; male, human, in vivo, 300 mg, Cmax, human plasma, Regimen K: 300 mg TQS-168 SDD QD 7 days, fed, Day 7): 1.6 µM
Cmax ([2]; male, human, in vivo, 300 mg, Cmax, human plasma, Regimen K: 300 mg TQS-168 SDD QD 7 days, fed, Day 7, geometric mean): 0.4 µg/mL
Tmax ([2]; male, human, in vivo, 300 mg, Tmax (median), Regimen K, 300 mg TQS-168 SDD QD, fed, Day 7, plasma): 4 h
Tmax ([2]; male, human, in vivo, 300 mg, Tmax, human plasma, Regimen K: 300 mg TQS-168 SDD QD 7 days, fed, Day 1): 2 h
Tmax ([2]; male, human, in vivo, 300 mg, Tmax, human plasma, Regimen K: 300 mg TQS-168 SDD QD 7 days, fed, Day 7): 4 h
Tmax ([2]; male, human, in vivo, po, 90 mg, Tmax (median), Regimen J, 90 mg TQS-168 SDD powder for oral suspension QD, fed, Day 1, plasma): 3 h
Tmax ([2]; male, human, in vivo, po, 300 mg, Tmax (median), Regimen K, 300 mg TQS-168 SDD powder for oral suspension QD, fed, Day 1, plasma): 2 h
suppression of TNFα production (TNFα; BV-2 cells, 0.3 ng/mL LPS, 10 μM TQS-168, ELISA, 24 hours): about 25%
inhibition at 10 µM (TNFα; Mus musculus, BV-2, 24 h, read-out: inhibition of TNFα production): ~35%
